This is an account of results in US10821115B2, “Compounds that inhibit Mcl-1 protein” (priority 2017, dated 2020).

Like-named read-outs stand apart in the source and are kept apart here.

The target of assay [1] is recombinant human Mcl-1 (residues 171-327) / Bim interaction (Homo sapiens (Human), UniProt Q07820). In words: biochemical. In kind it is binding. The note with it: read-out: Mcl-1 HTRF IC50.
Assay [2] deals with human multiple myeloma cell line, OPM-2. Briefly: Cell viability assay (OPM-2 10 FBS), CellTiter-Glo. In kind it is cell-based. In a few lines: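 IC50 values come from 4-parameter logistic fits of luminescence signals reflecting cell viability. Treatment lasted 16 h at 37 °C in complete medium with 10% FBS, starting from 3000 cells/well.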
Where [3] appears, read: TR-FRET, Mcl-1(171-327) / biotin-Bim (51-76).
[4] abbreviates: Homo sapiens, OPM-2, 16 h, read-out: OPM-2 10% FBS IC50 IP, OPM-2 cells, 10% FBS, 16 h, CellTiter-Glo.
Where [5] appears, read: 0.1 nM Mcl-1(171-327), 0.05 nM biotin-Bim (51-76).
[6] abbreviates: Homo sapiens, OPM-2, 16 h, read-out: OPM-2 10% FBS IC50 IP, OPM-2 cells, 10% FBS, 16 h incubation.
The mark [7] stands for this setting: read-out: OPM-2 10% FBS IC50 IP, OPM-2 cells, 10% FBS, 16 h, CellTiter-Glo.

Chain of recombinant human Mcl-1 (residues 171-327) / Bim interaction (Q07820 171-327): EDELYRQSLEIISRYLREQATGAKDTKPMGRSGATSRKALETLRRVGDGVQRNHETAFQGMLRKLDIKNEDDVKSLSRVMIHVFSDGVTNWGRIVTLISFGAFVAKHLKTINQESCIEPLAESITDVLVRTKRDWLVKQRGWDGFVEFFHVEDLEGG

Consider `C[C@@H]1[C@@H](C)CCC[C@](O)(COCCN(C)C)[C@@H]2CC[C@H]2CN2C[C@@]3(CCCc4cc(Cl)ccc43)COc3ccc(cc32)C(=O)NS1(=O)=O` [Example 100195, (1S,3′R,6′R,7′R,11′S,12′R)-6-chloro-7′-((2-(dimethylamino)ethoxy)methyl)-7′-hydroxy-11′,12′-dimethyl-3,4-dihydro-2H,15′H-spiro[naphthalene-1,22′-[20]oxa[13]thia[1,14]diazatetracyclo [14.7.2.0~3,6~.0~19,24~]pentacosa[16,18,24]trien]-15′-one 13′,13′-dioxide], for which the IC50 was 1.07 nM in assay [1] (setting [3]) and 625 nM in assay [2] (setting [4]).

Regarding `CO[C@@]1(CCCO)/C=C/C[C@H](C)[C@@H](C)S(=O)(=O)NC(=O)c2ccc3c(c2)N(C[C@@H]2CC[C@H]21)C[C@@]1(CCCc2cc(Cl)ccc21)CO3` [Example 100177, (1S,3′R,6′R,7′S,8′E,11′S,12′R)-6-chloro-7′-(3-hydroxypropyl)-7′-methoxy-11′,12′-dimethyl-3,4-dihydro-2H,15′H-spiro[naphthalene-1,22′-[20]oxa[13]thia[1,14]diazatetracyclo [14.7.2.0~3,6~.0~19,24~]pentacosa[8,16,18,24]tetraen]-15′-one 13′,13′-dioxide], the IC50 was 0.258 nM in assay [1] (setting [3]) and 259 nM in assay [2] (setting [4]).

Take `CO[C@@]1(CC(=O)N2CCC2)/C=C/C[C@H](C)[C@@H](C)S(=O)(=O)NC(=O)c2ccc3c(c2)N(C[C@@H]2CC[C@H]21)C[C@@]1(CCCc2cc(Cl)ccc21)CO3` [Example 100006, (1 S,3′R,6′R,7′S,8′E,11′S,12′R)-7′-(2-(1-azetidinyl)-2-oxoethyl)-6-chloro-7′-methoxy-1′,12′-dimethyl-3,4-dihydro-2H, 15′H-spiro[naphthalene-1,22′-[20]oxa[13]thia[1,14]diazatetracyclo[14.7.2.0-3,6˜.0˜19,24˜]pentacosa[8,16,18,24]tetraen]-15′-one 13′,13′-dioxide]: the IC50 stood at 0.081 nM in assay [1] (setting [3]) and 131 nM in assay [2] (setting [4]).

Consider `C[C@@H]1[C@@H](C)CCC[C@](O)(c2ncccn2)[C@@H]2CC[C@H]2CN2C[C@@]3(CCCc4cc(Cl)ccc43)COc3ccc(cc32)C(=O)NS1(=O)=O` (stereo in doubt) [Example 100270], for which the IC50 in assay [1] was found to be 0.776 nM; in assay [2] (setting [4]) it was 3720 nM.

For the compound `C[C@@H]1[C@@H](C)CCC[C@](O)(C[C@H]2CCCN(C)C2)[C@@H]2CC[C@H]2CN2C[C@@]3(CCCc4cc(Cl)ccc43)COc3ccc(cc32)C(=O)NS1(=O)=O` (single isomer, unassigned) [Example 100399], the IC50 in assay [1] (setting [3]) stood at 0.28 nM; in assay [2] (setting [4]), 2810 nM.

`CC[C@]1(OC)/C=C/C[C@H](C)[C@@H](C)S(=O)(=O)NC(=O)c2ccc3c(c2)N(C[C@@H]2CC[C@H]21)C[C@@]1(CCCc2cc(Cl)ccc21)CO3` [Example 100234, (1S,3′R,6′R,7′S,8′E,11′S,12′R)-6-chloro-7′-ethyl-7′-methoxy-11′,12′-dimethyl-3,4-dihydro-2H,15′H-spiro[naphthalene-1,22′-[20]oxa[13]thia[1,14]diazatetracyclo [14.7.2.0~3,6~.0~19,24~]pentacosa[8,16,18,24]tetraen]-15′-one 13′,13′-dioxide]: the IC50 came to 0.237 nM in assay [1] (setting [3]) and 449 nM in assay [2] (setting [4]).

Take `CCO[C@]1(CN2CCN3CCCC[C@@H]3C2)/C=C/CC[C@@H](CC)S(=O)(=O)NC(=O)c2ccc3c(c2)N(C[C@@H]2CC[C@H]21)C[C@@]1(CCCc2cc(Cl)ccc21)CO3` [Example 42, (1S,3′R,6′R,7′R,8′E,12′R)-6-chloro-7′-ethoxy-12′-ethyl-7′-((9aR)-octahydro-2H-pyrido[1,2-a]pyrazin-2-ylmethyl)-3,4-dihydro-2H,15′H-spiro[naphthalene-1,22′-[20]oxa[13]thia[1,14]diazatetracyclo [14.7.2.0~3,6~.0~19,24~]pentacosa[8,16,18,24]tetraen]-15′-one 13′,13′-dioxide]: the IC50 turned out to be 0.17 nM in assay [1] (setting [5]) and 149 nM in assay [2] (setting [6]).

In the case of `CC[C@@H]1CCCC[C@@](COC)(OC)[C@@H]2CC[C@H]2CN2C[C@@]3(CCCc4cc(Cl)ccc43)COc3ccc(cc32)C(=O)NS1(=O)=O` [Example 100038, (1S,3′R,6′R,7′R,12′R)-6-chloro-12′-ethyl-7′-methoxy-7′-(methoxymethyl)-3,4-dihydro-2H,15′H-spiro[naphthalene-1,22′-[20]oxa[13]thia[1,14]diazatetracyclo [14.7.2.0~3,6~.0~19,24~]pentacosa[16,18,24]trien]-15′-one 13′,13′-dioxide], the IC50 is 1.66 nM in assay [1] (setting [3]) and 2560 nM in assay [2] (setting [4]).

For `C[C@@H]1[C@@H](C)CCC[C@](O)([C@@H](C)C(=O)N(C)C)[C@@H]2CC[C@H]2CN2C[C@@]3(CCCc4cc(Cl)ccc43)COc3ccc(cc32)C(=O)NS1(=O)=O` (single isomer, unassigned) [Example 100119], the IC50 in assay [1] (setting [3]) was 1.72 nM; in assay [2] (setting [7]), 1570 nM.

As to `C[C@@H]1[C@@H](C)CCC[C@@](O)(C2CCN(C)CC2)[C@@H]2CC[C@H]2CN2C[C@@]3(CCCc4cc(Cl)ccc43)COc3ccc(cc32)C(=O)NS1(=O)=O` [Example 100382, (1S,3′R,6′R,7′R,11′S,12′R)-6-chloro-7′-hydroxy-11′,12′-dimethyl-7′-(1-methyl-4-piperidinyl)-3,4-dihydro-2H,15′H-spiro[naphthalene-1,22′-[20]oxa[13]thia[1,14]diazatetracyclo [14.7.2.0~3,6~.0~19,24~]pentacosa[16,18,24]trien]-15′-one 13′,13′-dioxide], the IC50 turned out to be 0.471 nM in assay [1] (setting [3]) and 312 nM in assay [2] (setting [7]).

Regarding `C[C@@H]1[C@@H](C)C[C@@H]2C=CC[C@](O)(C2)[C@@H]2CC[C@H]2CN2C[C@@]3(CCCc4cc(Cl)ccc43)COc3ccc(cc32)C(=O)NS1(=O)=O` [Example 100056, (1S,3′R,6′R,7′S,11′S,13′S,14′R)-6-chloro-7′-hydroxy-13′,14′-dimethyl-3,4-dihydro-2H,17′H-spiro[naphthalene-1,24′-[22]oxa[15]thia[1,16]diazapentacyclo [16.7.2.1~7,11~.0~3,6~.0~21,26~]octacosa [9,18,20,26]tetraen]-17′-one 15′,15′-dioxide], the results for the IC50 in assay [1] (setting [3]) and in assay [2] (setting [4]) were 0.424 nM and 1680 nM, respectively.

With `C[C@@H]1[C@@H](C)C/C=C/[C@@](O)(CC(=O)N2CCCCC2)[C@@H]2CC[C@H]2CN2C[C@@]3(CCCc4cc(Cl)ccc43)COc3ccc(cc32)C(=O)NS1(=O)=O` [Example 100257, (1S,3′R,6′R,7′S,8′E,11′S,12′R)-6-chloro-7′-hydroxy-11′,12′-dimethyl-7′-(2-oxo-2-(1-piperidinyl)ethyl)-3,4-dihydro-2H,15′H-spiro[naphthalene-1,22′-[20]oxa[13]thia[1,14]diazatetracyclo [14.7.2.0~3,6~.0~19,24~]pentacosa[8,16,18,24]tetraen]-15′-one 13′,13′-dioxide], the IC50 in assay [1] (setting [3]) is 0.18 nM; in assay [2] (setting [7]) it was 80 nM.

`CO[C@@]1(CN2CCN(CCO)CC2)/C=C/C[C@H](C)[C@@H](C)S(=O)(=O)NC(=O)c2ccc3c(c2)N(C[C@@H]2CC[C@H]21)C[C@@]1(CCCc2cc(Cl)ccc21)CO3` [Example 300, (1S,3′R,6′R,7′S,8′E,11′S,12′R)-6-chloro-7′-((4-(2-hydroxyethyl)-1-piperazinyl)methyl)-7′-methoxy-11′,12′-dimethyl-3,4-dihydro-2H,15′H-spiro[naphthalene-1,22′-[20]oxa[13]thia[1,14]diazatetracyclo [14.7.2.0~3,6~.0~19,24~]pentacosa[8,16,18,24]tetraen]-15′-one 13′,13′-dioxide]: the figures for the IC50 in assay [1] (setting [5]) and in assay [2] (setting [6]) were 0.165 nM and 284 nM, respectively.

Turning to `COCCN1CCN(CCO[C@@]2(C)/C=C/C[C@H](C)[C@@H](C)S(=O)(=O)NC(=O)c3ccc4c(c3)N(C[C@@H]3CC[C@H]32)C[C@@]2(CCCc3cc(Cl)ccc32)CO4)CC1` [Example 100485, (1S,3′R,6′R,7′S,8′E,11′S,12′R)-6-chloro-7′-(2-(4-(2-methoxyethyl)-1-piperazinyl)ethoxy)-7′,11′,12′-trimethyl-3,4-dihydro-2H,15′H-spiro[naphthalene-1,22′-[20]oxa[13]thia[1,14]diazatetracyclo [14.7.2.0~3,6~.0~19,24~]pentacosa[8,16,18,24]tetraen]-15′-one 13′,13′-dioxide], the IC50 in assay [1] (setting [3]) was found to be 0.192 nM; in assay [2] (setting [4]) it was 272 nM.

With `CO[C@@]1(CN(C)CCN2CCOCC2)/C=C/C[C@H](C)[C@@H](C)S(=O)(=O)NC(=O)c2ccc3c(c2)N(C[C@@H]2CC[C@H]21)C[C@@]1(CCCc2cc(Cl)ccc21)CO3` [Example 35, (1S,3′R,6′R,7′S,8′E,11′S,12′R)-6-chloro-7′-methoxy-11′,12′-dimethyl-7′-((methyl(2-(4-morpholinyl)ethyl)amino)methyl)-3,4-dihydro-2H,15′H-spiro[naphthalene-1,22′-[20]oxa[13]thia[1,14]diazatetracyclo [14.7.2.0~3,6~.0~19,24~]pentacosa[8,16,18,24]tetraen]-15′-one 13′,13′-dioxide], the results for the IC50 in assay [1] (setting [5]) and in assay [2] (setting [6]) were 0.218 nM and 235 nM, respectively.

As to `CCC[C@@]1(O)/C=C/C[C@H](C)[C@@H](C)S(=O)(=O)NC(=O)c2ccc3c(c2)N(C[C@@H]2CC[C@H]21)C[C@@]1(CCCc2cc(Cl)ccc21)CO3` [Example 100209, (1S,3′R,6′R,7′R,8′E,11′S,12′R)-6-chloro-7′-hydroxy-11′,12′-dimethyl-7′-propyl-3,4-dihydro-2H,15′H-spiro[naphthalene-1,22′-[20]oxa[13]thia[1,14]diazatetracyclo [14.7.2.0~3,6~.0~19,24~]pentacosa[8,16,18,24]tetraen]-15′-one 13′,13′-dioxide], the IC50 in assay [1] came to 2.67 nM; in assay [2] (setting [4]), 3380 nM.
